Reference: patent publication US20250025525A1, “OCTAPEPTIDE FOR TOPICAL APPLICATION” (Alastin Skincare, Inc., priority 2022, published 2025)
Where no end group is shown, it is not given here.

Experiments:
[1] = system: Hyaluronic Acid Synthase 2 (HAS2); assay: RNA-Seq gene expression of HAS2 in keratinocytes; assay type: cell-based, Human; conditions: 24 hr, Hexapeptide 11 100 μg/ml
Procedure: (§1) Cell Lines. Human adult dermal fibroblast and keratinocyte cell lines were treated with 11 different compound treatments (plus DMSO control as treatment #12Primary cells were plated in cell specific media at 5K or 10K cells per cm^2. Cells were plated in 48 well plates (Greiner) in triplicate, one cell line per plate. Media volume was 500 ul per well. Outer two columns of wells were not used. All rows were used. Cells were cultured for 2 days in 37° C. 5% CO2 incubator. After 48 hours all the cell cultures were uniform and appeared healthy, no appreciable number of floating dead cells or evidence of vacuolization of cells that might indicate apoptotic or dying cells.
(§2) Compounds. Stocks of compounds 1 through 8 on the list below were prepared in PBS. […] This stock was 100× of final concentration. A 20 mg/ml stock of compound 10 (CBD) was prepared in DMSO. No undissolved particulates were observed but the stock solution was slightly cloudy, not completely clear. […]
(§3) RNA Lysate preparation. […] All samples were shipped frozen on dry ice for RNA extraction, library construction and sequencing to 25M paired end 100 bp reads per sample.
(§4) RNA-Seq. All the RNA samples were shipped frozen on dry ice for RNA extraction, library construction and sequencing to 25M paired end 100 bp reads per sample. Differentially expressed genes were identified and pathway enrichment was assessed using the Reactome Pathway.

Hyaluronidase 2 (HYAL2) = assay: RNA-Seq gene expression of HYAL2 in keratinocytes; assay type: cell-based, Human; conditions: 24 hr, 100 μg/ml
Procedure: as §1, §2, §3, §4

[2] = system: Early Growth Response 3 (EGR3); assay: RNA-Seq gene expression of EGR3 in keratinocytes; assay type: cell-based, Human; conditions: 24 hr, Hexapeptide 11 100 μg/ml
Procedure: as §1, §2, §3, §4

[3] = system: dermal and epidermal hyaluronic acid levels; conditions: ex vivo human skin model; cited from earlier work
[4] = system: Hyaluronic Acid Synthase 2 (HAS2); assay: RNA-Seq gene expression of HAS2 in dermal fibroblasts; assay type: cell-based, Human; conditions: 24 hr, Octapeptide 100 μg/ml
Procedure: as §1, §2, §3, §4

dermal fibroblasts = assay: HA production and size assessment by PAGE of fibroblast supernatant; assay type: cell-based, human; conditions: 1× and 10× (100 μg/ml and 1000 μg/ml), 72 hr, 4 experiments
Procedure: Dermal fibroblasts were cultured in growth medium until near confluence in 6-well plates. When they reached confluence, the growth medium was replaced with serum-free medium for 24 hours. After 72 hr, 100 μl of media was collected from each treatment condition. The media was concentrated in a SpeedVac concentrator to a final volume of ˜10 μl. All 10 μl from each condition, were loaded onto an acrylamide gel (NuPAGE 4-12% Bis-Tris Protein Gel, Invitrogen, Waltham, MA). Sodium Hyaluronate, Research Grade, (HA2M) from Lifecore Biomedical (Chaska, MN) was reconstituted as recommended by the manufacturer and served as a MW reference, representing high MW HA. The gel was run at 200V for 3 hours to separate MW sizes from proteins and ECM components isolated from the supernatants along with the HA2M reference as a comparator. Gel buffer was exchanged with fresh room temperature buffer every 20 minutes to avoid overheating. The gel was stained using Stains-All (Millipore Sigma, Burlington, MA) and destained according to the manufacturer's protocol. […]
Human dermal fibroblasts were treated with Octapeptide (1× and 10×; corresponding to 100 μg/ml and 1000 μg/ml respectively) or left untreated. […] The experiment was conducted 4 times and the density of the bands from each supernatant were quantified (arbitrary units (AU)) using ImageJ. […]

[5] = system: microfibrillar-associated protein 4 (MFAP4); assay: Ex vivo human skin tissue, MFAP4 immunofluorescent staining; conditions: once daily for 7 days, 20 μg/ml of each peptide
Procedure: (§5) Referring to FIG. 24, human skin tissue was defatted and cut into a diameter of approximately 7 mm and placed in a transwell insert with cell culture media (DMEM/F12 containing […] CaCl2), 2% fetal bovine serum, 50 μM adenine, 0.02 nM tri-iodothyronine, 1% ITS-X (insulin, transferrin, selenium mix), 1% glutagro (a glutamine equivalent), 1% pen/strep, and 1% gentamycin). The medium was changed daily. The human skin tissue samples were equilibrated for 3 days, then treated with the compounds noted in Table 6 once daily for 7 days. After 7 days of treatment, the skin samples were fixed in formalin and embedded in paraffin following industry standard procedures. The resulting blocks were prepared and sectioned for immunofluorescent staining.
(§6) Antibodies directed to tropoelastin (TE) (available from Elastin, Owensville, MO) and antibodies against microfibrillar-associated protein 4 (MFAP4) (available from ThermoFisher Waltham, MA) were used to detect the production of new elastin in the treated cells. The appropriate fluorescent secondary antibodies were used for detection by fluorescence microscopy. Images were obtained and analyzed using ImageJ software.
(§7) Data was obtained from a minimum of three donor skin samples and replicates or triplicates were performed for each compound treated.

tropoelastin (TE) = assay: Ex vivo human skin tissue, tropoelastin immunofluorescent staining; conditions: once daily for 7 days, 20 μg/ml of each peptide
Procedure: as §5, §6, §7

Compound | HAS2 gene expression, fold-change relative to the non-treated cells [1] | HYAL2 gene expression, fold-change relative to the non-treated cells (Hyaluronidase 2 (HYAL2)) | upregulation of EGR3 gene expression relative to the non-treated cells [2] | stimulation of dermal hyaluronic acid levels versus placebo [3] | stimulation of epidermal hyaluronic acid levels versus placebo [3] | HAS2 gene expression, fold-change relative to the non-treated cells [4] | production of high MW HA (band density, AU) (dermal fibroblasts) | MFAP4 expression vs untreated skin [5] | TE expression vs untreated skin (tropoelastin (TE))
Hexapeptide-11 | excellent upregulation | potent downregulation | about seven |  |  |  |  |  | 
CCCCCCCC(=O)CCc1ccc(O)c(OC)c1 [Hydroxymethoxyphenyl decanone] |  |  |  | 259% | 198% |  |  |  | 
GPHGVREA [octapeptide-45, proprietary peptide designed by R&D at Alastin; octapeptide included in HA Immerse Serum] |  | modest downregulation |  |  |  | excellent stimulation | dose-responsive increase in the production of high MW HA | increases | increases
